US6399629B1, “Efflux pump inhibitors” (priority 1998, dated 2002)

Test system: Pseudomonas aeruginosa PAM1001
Assay: checkerboard assay (broth microdilution): levofloxacin MIC in presence of efflux pump inhibitor
Format: cell-based
Method: For compounds labeled with the prefix ‘M’, potentiation effect is observed by the reduction of the minimum inhibitory concentration of levofloxacin in the presence of the experimental efflux pump inhibitor. The activity of efflux pump inhibitors (EPI) in combination with fluoroquinolones, such as levofloxacin, is assessed by the checkerboard assay (Antimicrobial Combinations. In Antibiotics in Laboratory Medicine, Ed. Victor Lorian, M.D., Fourth edition, 1996, pp 333-338) using broth microdilution method performed as recommended by the National Committee for Clinical Laboratory Standards (1997). Methods for Dilution of Antimicrobial Susceptibility Tests for Bacteria That Grow Aerobically—Fourth Edition; Approved Standard. NCCLS Document M7-A4, Vol 17 No.2). The test organism used is Pseudomonas aeruginosa PAM1001. […] The compounds tabulated below are representative of the described invention.
In these assays, multiple dilutions of two drugs, namely the EPI and levofloxacin, are being tested, alone and in combination, at concentrations equal to, above and below their respective minimal inhibitory concentrations (MICs). In the case of EPI, most of these compounds are devoid of intrinsic antimicrobial activity and are tested up to the maximum concentration of 40 μg/mL. The MIC of levofloxacin against P. aeruginosa PAM1001 is 4 μg/mL.
The EPI tested are readily soluble in water and stock solutions are prepared at a final concentration of 2 mg/mL. Stock solutions are further diluted, according to the needs of a particular assay, in Mueller Hinton Broth (MHB). Stock solution can be stored at −80° C. Quinolones are solubilized according to the instructions of the manufacturers, at a concentration of 1 mg/mL. They are then further diluted in MHB. Stock solution can be stored at −80° C.
The checkerboard assay is performed in microtiter plates. Levofloxacin is diluted in the x axis, each column containing a single concentration of levofloxacin. The EPI is diluted in the y axis, each row containing an equal concentration of EPI. The result of these manipulations is that each well of the microtiter plate contains a unique combination of concentrations of the two agents. Each EPI are tested independently.
The assay is performed in MHB with a final bacterial inoculum of 5×10^5 CFU/mL (from an early-log phase culture). Microtiter plates are incubated during 20 h at 35° C. and are read using a microtiter plate reader (Molecular Devices) at 650 nm as well as visual observation using a microtiterplate reading mirror.

Compound	MIC (Pseudomonas aeruginosa, PAM1001, read-out: MIC of levofloxacin against P. aeruginosa PAM1001) [µg/mL]	Levofloxacin MIC Against P. aerugiuosa PAM1001 in Presence of Efflux Pump Inhibitor (EPI), Minimum Inhibitory Concentration (EPI Conc. 0 μg/mL) [µg/mL]	Levofloxacin MIC Against P. aerugiuosa PAM1001 in Presence of Efflux Pump Inhibitor (EPI), Minimum Inhibitory Concentration (EPI Conc. 0.625 μg/mL) [µg/mL]	Levofloxacin MIC Against P. aerugiuosa PAM1001 in Presence of Efflux Pump Inhibitor (EPI), Minimum Inhibitory Concentration (EPI Conc. 1.25 μg/mL) [µg/mL]	Levofloxacin MIC Against P. aerugiuosa PAM1001 in Presence of Efflux Pump Inhibitor (EPI), Minimum Inhibitory Concentration (EPI Conc. 2.5 μg/mL) [µg/mL]	Levofloxacin MIC Against P. aerugiuosa PAM1001 in Presence of Efflux Pump Inhibitor (EPI), Minimum Inhibitory Concentration (EPI Conc. 5 μg/ mL) [µg/mL]	Levofloxacin MIC Against P. aerugiuosa PAM1001 in Presence of Efflux Pump Inhibitor (EPI), Minimum Inhibitory Concentration (EPI Conc. 10 μg/mL) [µg/mL]	Levofloxacin MIC Against P. aerugiuosa PAM1001 in Presence of Efflux Pump Inhibitor (EPI), Minimum Inhibitory Concentration (EPI Conc. 20 μg/mL) [µg/mL]	Levofloxacin MIC Against P. aerugiuosa PAM1001 in Presence of Efflux Pump Inhibitor (EPI), Minimum Inhibitory Concentration (EPI Conc. 40 μg/mL) [µg/mL]
C[C@H]1COc2c(N3CCN(C)CC3)c(F)cc3c(=O)c(C(=O)O)cn1c23 [levofloxacin, reference compound]	4								
NC[C@@H]1CN[C@@H](C(=O)N[C@H](CCc2ccccc2)C(=O)Nc2cnc3ccc(F)cc3c2)C1 [Compound M35, (2R,4R)-4-(Aminomethyl)-N-[(1R)-3-pheyl-1-(6-fluoro-3-quinolylcarbamoyl)propyl]-2-pyrrolidinecarboxamide]		4	4	4	4	2	0.5	0.03	0.03
CCc1ccc2ncc(NC(=O)[C@@H](CCc3ccccc3)NC(=O)[C@H]3C[C@H](CN)CN3)cc2c1 [Compound M14, (2R,4R)-4-(Aminomethyl)-N-[(1R)-3-phenyl-1-(6-ethyl-3-quiolylcarbamoyl)propyl]-2-pyrrolidinecarboxamide]		4	4	4	2	0.03	0.03	0.03	
Cc1cc2nc(C(O)[C@@H](CCc3ccccc3)NC(=O)[C@@H]3C[C@@H](NC(=O)CN)CN3)oc2cc1C (stereo partly shown) [Compound M67]		4	4	4	4	4	0.5	0.03	
NCC(=O)N[C@H]1CN[C@H](C(=O)N[C@H](CCc2ccccc2)CSc2cnc3ccccc3c2)C1 [Compound M53, (2S,4R)-4-(2-Aminoacetamideo)-N-[(1R)-3-phenyl-1-[(3-quinolythio)methyl]propyl]-2-pyrrolidinecarboxamide]		4	4	4	4	4	4	0.06	0.03
